Among the targets are Carbonic anhydrase 9 (Homo sapiens, UniProt Q16790); Carbonic anhydrase 12 (Homo sapiens, UniProt O43570); Carbonic anhydrase 14 (Homo sapiens, UniProt Q9ULX7); Carbonic anhydrase 2 (Homo sapiens, UniProt P00918); Carbonic anhydrase 1 (Homo sapiens, UniProt P00915).

Sequence of Carbonic anhydrase 1 (P00915 whole entry): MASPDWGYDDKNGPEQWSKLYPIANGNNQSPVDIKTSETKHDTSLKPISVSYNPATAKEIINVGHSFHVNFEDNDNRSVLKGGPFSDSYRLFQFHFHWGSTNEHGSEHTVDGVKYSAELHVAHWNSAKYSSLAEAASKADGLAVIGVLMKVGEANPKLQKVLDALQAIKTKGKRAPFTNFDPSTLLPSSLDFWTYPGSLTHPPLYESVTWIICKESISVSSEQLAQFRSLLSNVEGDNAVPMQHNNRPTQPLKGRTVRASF
Sequence of Carbonic anhydrase 12 (O43570 whole entry): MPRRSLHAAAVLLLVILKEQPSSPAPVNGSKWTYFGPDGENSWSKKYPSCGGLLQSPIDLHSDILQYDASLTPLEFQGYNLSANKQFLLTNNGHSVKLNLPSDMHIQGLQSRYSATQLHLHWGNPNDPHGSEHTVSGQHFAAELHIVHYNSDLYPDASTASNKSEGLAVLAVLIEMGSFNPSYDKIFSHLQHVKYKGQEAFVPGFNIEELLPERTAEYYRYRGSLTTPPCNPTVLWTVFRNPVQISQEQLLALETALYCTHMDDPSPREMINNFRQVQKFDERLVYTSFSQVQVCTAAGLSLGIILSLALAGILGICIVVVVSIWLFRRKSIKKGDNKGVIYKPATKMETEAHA
Sequence of Carbonic anhydrase 14 (Q9ULX7 whole entry): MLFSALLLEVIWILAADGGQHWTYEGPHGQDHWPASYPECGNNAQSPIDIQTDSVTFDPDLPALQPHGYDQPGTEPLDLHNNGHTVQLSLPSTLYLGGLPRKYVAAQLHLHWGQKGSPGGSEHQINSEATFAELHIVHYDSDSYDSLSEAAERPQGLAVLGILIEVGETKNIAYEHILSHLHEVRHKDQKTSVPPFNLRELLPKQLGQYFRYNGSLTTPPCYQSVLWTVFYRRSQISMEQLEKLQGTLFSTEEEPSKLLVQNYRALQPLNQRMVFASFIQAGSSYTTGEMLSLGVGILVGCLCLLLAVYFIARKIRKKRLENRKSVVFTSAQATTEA
Description for Carbonic anhydrase 12: Inhibition of human recombinant carbonic anhydrase 12 preincubated for 15 mins by stopped flow CO2 hydration method
Description for Carbonic anhydrase 14: Inhibition of human recombinant carbonic anhydrase 14 preincubated for 15 mins by stopped flow CO2 hydration method
Description for Carbonic anhydrase 2: Inhibition of human recombinant carbonic anhydrase 2 preincubated for 15 mins by stopped flow CO2 hydration method

In the case of `O=P(O)(O)C(Nc1ccc(C(F)(F)F)cc1)P(=O)(O)O`, the IC50 is > 10 µM against Carbonic anhydrase 9; 0.089 µM against Carbonic anhydrase 12; > 10 µM at Carbonic anhydrase 14; > 10 µM against Carbonic anhydrase 2; 6.08 µM against Carbonic anhydrase 1.

Consider `O=P(O)(O)C(Nc1ccc(O)cc1)P(=O)(O)O`, for which the IC50 on Carbonic anhydrase 9 was > 10 µM; at Carbonic anhydrase 12 it was 0.078 µM; on Carbonic anhydrase 14, > 10 µM; against Carbonic anhydrase 2, 8.2 µM; at Carbonic anhydrase 1, 4.57 µM.

In the case of `O=P(O)(O)C(Nc1ccc(Br)cc1)P(=O)(O)O`, the IC50 is > 10 µM at Carbonic anhydrase 9; 0.239 µM against Carbonic anhydrase 12; > 10 µM against Carbonic anhydrase 14; > 10 µM on Carbonic anhydrase 2; > 10 µM against Carbonic anhydrase 1.

Consider `O=[N+]([O-])c1ccc(NC(P(=O)(O)O)P(=O)(O)O)cc1`, for which the IC50 on Carbonic anhydrase 9 is > 10 µM; against Carbonic anhydrase 12, 0.419 µM; at Carbonic anhydrase 14, > 10 µM; on Carbonic anhydrase 2, > 10 µM; against Carbonic anhydrase 1, 7.98 µM.

On to `O=P(O)(O)C(Nc1ccc(-c2ccccc2)cc1)P(=O)(O)O`, for which the IC50 is > 10 µM on Carbonic anhydrase 9; > 10 µM on Carbonic anhydrase 12; 8.21 µM on Carbonic anhydrase 14; > 10 µM against Carbonic anhydrase 2; > 10 µM on Carbonic anhydrase 1.

Turning to `O=[N+]([O-])c1cc(NC(P(=O)(O)O)P(=O)(O)O)ccc1F`, the IC50 at Carbonic anhydrase 9 is > 10 µM; on Carbonic anhydrase 12, > 10 µM; at Carbonic anhydrase 14, 8.81 µM; against Carbonic anhydrase 2, > 10 µM; against Carbonic anhydrase 1 it was 5.53 µM.

Turning to `O=P(O)(O)C(Nc1ccc(Oc2ccc(Br)cc2)cc1)P(=O)(O)O`, the IC50 on Carbonic anhydrase 9 is 8.17 µM; on Carbonic anhydrase 12, > 10 µM; on Carbonic anhydrase 14, 6.12 µM; against Carbonic anhydrase 2, 7.47 µM; on Carbonic anhydrase 1, > 10 µM.

On to `Cc1ccc(NC(P(=O)(O)O)P(=O)(O)O)cc1` [(P-TOLYLAMINO)METHYLENEDIPHOSPHONIC ACID], for which the IC50 was > 10 µM against Carbonic anhydrase 9; 0.35 µM on Carbonic anhydrase 12; > 10 µM at Carbonic anhydrase 14; > 10 µM against Carbonic anhydrase 2; 5.93 µM on Carbonic anhydrase 1.

As for `O=P(O)(O)C(Nc1ccc(Oc2ccccc2)cc1)P(=O)(O)O`, the IC50 was 8.21 µM against Carbonic anhydrase 9; > 10 µM at Carbonic anhydrase 12; 5.5 µM on Carbonic anhydrase 14; > 10 µM on Carbonic anhydrase 2; > 10 µM on Carbonic anhydrase 1.

As for `O=P(O)(O)C(Nc1cccc(C(F)(F)F)c1)P(=O)(O)O`, the IC50 against Carbonic anhydrase 9 is > 10 µM; against Carbonic anhydrase 12 it was 0.092 µM; against Carbonic anhydrase 14, > 10 µM; on Carbonic anhydrase 2, > 10 µM; against Carbonic anhydrase 1, 5.83 µM.

For `O=[N+]([O-])c1cccc(NC(P(=O)(O)O)P(=O)(O)O)c1` [(3-NITROPHENYLAMINO)METHYLENEDIPHOSPHONIC ACID], the IC50 against Carbonic anhydrase 9 is > 10 µM; against Carbonic anhydrase 12, 0.088 µM; at Carbonic anhydrase 14, > 10 µM; at Carbonic anhydrase 2, > 10 µM; on Carbonic anhydrase 1, 0.814 µM.

Regarding `O=P(O)(O)C(Nc1ccc(Cl)c(Cl)c1)P(=O)(O)O` [3,4-DICHLOROPHENYLAMINOMETHYLENEBISPHOSPHONIC ACID], the IC50 against Carbonic anhydrase 9 was > 10 µM; on Carbonic anhydrase 12, > 10 µM; at Carbonic anhydrase 14, 7.84 µM; against Carbonic anhydrase 2, > 10 µM; against Carbonic anhydrase 1, > 10 µM.

For the molecule `O=P(O)(O)C(Nc1cccc(F)c1)P(=O)(O)O`, the IC50 on Carbonic anhydrase 9 is 8.23 µM; on Carbonic anhydrase 12, 8.69 µM; on Carbonic anhydrase 14, 0.082 µM; at Carbonic anhydrase 2 it was > 10 µM; against Carbonic anhydrase 1, > 10 µM.

Turning to `O=P(O)(O)C(Nc1ccc(F)cc1)P(=O)(O)O`, the IC50 is > 10 µM against Carbonic anhydrase 9; 0.269 µM on Carbonic anhydrase 12; > 10 µM at Carbonic anhydrase 14; > 10 µM against Carbonic anhydrase 2; > 10 µM on Carbonic anhydrase 1.

For `O=P(O)(O)C(Nc1cccc(Br)c1)P(=O)(O)O`, the IC50 against Carbonic anhydrase 9 is > 10 µM; against Carbonic anhydrase 12 it was > 10 µM; on Carbonic anhydrase 14 it was 0.911 µM; on Carbonic anhydrase 2, > 10 µM; on Carbonic anhydrase 1, 8.29 µM.

On to `O=P(O)(O)C(Nc1ccc(Oc2ccc(Cl)cc2)cc1)P(=O)(O)O`, for which the IC50 is 8.23 µM at Carbonic anhydrase 9; > 10 µM at Carbonic anhydrase 12; 4.42 µM against Carbonic anhydrase 14; 9.37 µM on Carbonic anhydrase 2; > 10 µM on Carbonic anhydrase 1.

`O=P(O)(O)C(Nc1cccc(-c2ccccc2)c1)P(=O)(O)O`: the IC50 was 7.63 µM against Carbonic anhydrase 9; > 10 µM against Carbonic anhydrase 12; 0.309 µM at Carbonic anhydrase 14; 9.37 µM at Carbonic anhydrase 2; > 10 µM on Carbonic anhydrase 1.

`O=P(O)(O)C(Nc1ccc(Cl)cc1Cl)P(=O)(O)O` [2,4-DICHLOROPHENYLAMINOMETHYLENEBISPHOSPHONIC ACID]: the IC50 was > 10 µM against Carbonic anhydrase 9; > 10 µM at Carbonic anhydrase 12; 7.46 µM at Carbonic anhydrase 14; > 10 µM against Carbonic anhydrase 2; 7.14 µM against Carbonic anhydrase 1.

As to `O=P(O)(O)C(O)(Cn1ccnc1)P(=O)(O)O` [ZOLEDRONIC ACID], the IC50 was 5.32 µM on Carbonic anhydrase 9; 0.316 µM against Carbonic anhydrase 12; 0.092 µM against Carbonic anhydrase 14; 0.062 µM on Carbonic anhydrase 2; > 10 µM on Carbonic anhydrase 1.

As for `O=P(O)(O)C(Nc1ccccc1)P(=O)(O)O` [(PHENYLAMINO)METHYLENEDIPHOSPHONIC ACID], the concentration for half-maximal inhibition (IC50) on Carbonic anhydrase 9 was 8.92 µM; at Carbonic anhydrase 12, 0.437 µM; at Carbonic anhydrase 14 it was > 10 µM; at Carbonic anhydrase 2, > 10 µM; at Carbonic anhydrase 1, > 10 µM.

Regarding `O=P(O)(O)C(Nc1cccc2ccccc12)P(=O)(O)O`, the IC50 against Carbonic anhydrase 9 was > 10 µM; against Carbonic anhydrase 12, 6.92 µM; against Carbonic anhydrase 14, 0.319 µM; against Carbonic anhydrase 2, 9.09 µM; at Carbonic anhydrase 1, > 10 µM.

A word on the IC50: it is the midpoint of a concentration-inhibition curve. High values mean weaker potency in that assay, low ones greater potency in that assay.

These data come from ChEMBL document CHEMBL3232909, “Arylamino bisphosphonates: potent and selective inhibitors of the tumor-associated carbonic anhydrase XII” (Bioorg Med Chem Lett, 2014).
